Here are results for three compounds from publication PMC9032663, “α-Glucosidase Inhibitory and Antimicrobial Benzoylphloroglucinols from Garcinia schomburgakiana Fruits: In Vitro and In Silico Studies” (Molecules, 2022).

The test system of data set [1] is S. aureus. More on the design: method as in PMID 27458464. Particulars: cited from earlier work.
For data set [2], the system named is S. aureus. Briefly: MIC determination. The data set is classed as cell-based, Staphylococcus aureus.
The target in the next data set is α-glucosidase. Briefly: α-glucosidase inhibition assay. It is filed as biochemical, yeast. Particulars: in vitro; read-out: α-glucosidase inhibitory activity IC50. On the procedure:
The enzymatic reaction was carried out at 37 °C for 20 min and stopped by adding 0.2 M Na2CO3 (130 μL). Enzymatic activity was quantified by measuring absorbance at 405 nm. All samples were analyzed in triplicate at five different concentrations around the IC50 values, and the mean values were retained.

A further data set is described as follows: cytotoxicity assay. The data set is classed as cell-based. The following applies: human, HEK293 cells (normal cell line). The source says: The cytotoxic evaluation of compound 1 against the HEK293 normal cell line was applied from a previous procedure.
The next data set has as its system Staphylococcus aureus. As to the kind of experiment: agar well diffusion antibacterial assay. It is filed as cell-based. Particulars: S. aureus, concentration of 50 µg/mL. On the procedure: (§1) The agar well diffusion method was used to evaluate the antibacterial activity of the isolated compounds on antibiotic-resistant, pathogenic bacteria Staphylococcus aureus, Enterococcus faecium, and Acinetobacter baumannii. Three bacterial pathogens were cultured in nutrient broth at 37 °C for 18 h. The cultures were diluted with sterile 0.9% NaCl to obtain bacterial solutions of 1.5 × 10^8 CFU/mL. This solution with a volume of 100 μL was spread on a Mueller–Hinton agar plate. Holes with a diameter of 8 mm were punched aseptically to create wells on the surface of the Mueller–Hinton agar. The compounds were dissolved in DMSO. The amount of 50 µg of each compound solution was inserted into the wells. The plates were incubated at 37 °C for 16–18 h, and the antibacterial activity of each compound was recorded by measuring the diameters of the inhibition zones surrounding the wells. DMSO was used as a control. […] Kanamycin was used as the positive control in this experiment.
Background: A growth-free zone around the sample is the usual read-out of agar diffusion tests.

For another data set, the system named is Enterococcus faecium. As to the kind of experiment: agar well diffusion antibacterial assay. It is filed as cell-based. Particulars: E. faecium, concentration of 50 µg/mL. On the procedure:
as §1

The next data set has as its system Acinetobacter baumannii. Briefly: agar well diffusion antibacterial assay. It is filed as cell-based. Particulars: A. baumannii, at the tested concentration. On the procedure: as §1

≈ marks a conversion by molar mass, not a printed value. Like-named read-outs stand apart in the source and are kept apart here.

Turning to Guttiferone BL, the “activity against S. aureus” value in the data set on S. aureus [1] was “low activity”.

By MIC is commonly meant the lowest concentration that inhibits growth of the organism. Read a high MIC as a less susceptible organism. For the compound `NC[C@H]1O[C@H](O[C@H]2[C@H](O)[C@@H](O[C@H]3O[C@H](CO)[C@@H](O)[C@H](N)[C@H]3O)[C@H](N)C[C@@H]2N)[C@H](O)[C@@H](O)[C@@H]1O` [kanamycin, reference compound], the minimal inhibitory concentration (MIC) against S. aureus [2] amounted to 8.26 µM (≈ 4 µg/mL).

Broadly, the IC50 is the midpoint of a concentration-inhibition curve. What is called zone of inhibition is the size of the clear area around the sample on an inoculated plate. Higher therefore signals a stronger effect on the plate. For `CC(C)=CCCC1(C)C(CC=C(C)C)CC23CCC(C)(C)OC2=C(C(=O)c2ccc(O)c(O)c2)C(=O)C1(CC=C(C)C)C3=O` (centres unmarked) [Compound 1, schomburgkianone I], the IC50 worked out at 21.2 µM on α-glucosidase and 87 µM in the data set “cytotoxicity assay”. For the same compound, the lowest concentration to inhibit growth against S. aureus [2] (Staphylococcus aureus) (MIC) was 13.3 µM (≈ 8.03 µg/mL). Moreover, the values for the zone of inhibition at 50 µg/mL in the data set with Staphylococcus aureus and in the data set on Enterococcus faecium were 21 mm and 20 mm, respectively. For the same compound, the antimicrobial activity entry in the data set with Acinetobacter baumannii was “failed to show any activity”.
